Laboratory results published in the NIST ThermoML archive (doi:10.1021/je8004613).

Experiment: xn = mol fraction of the nth substance listed
Settings: 101 kPa, Liquid; for speed of sound: Pulse-echo method; for mass density: Vibrating tube method

COC(C)(C)C [2-methoxy-2-methylpropane] + CCCCCCCC
Settings	mass density, 288.15 K [kg/m3]	mass density, 293.15 K [kg/m3]	mass density, 298.15 K [kg/m3]	mass density, 303.15 K [kg/m3]	mass density, 308.15 K [kg/m3]	speed of sound, 288.15 K [m/s]	speed of sound, 293.15 K [m/s]	speed of sound, 298.15 K [m/s]	speed of sound, 303.15 K [m/s]	speed of sound, 308.15 K [m/s]
x1 = 0.0681	708.15	704.08	700.01	695.91	691.79	1205.4	1184.6	1163.5	1142.6	1121.8
x1 = 0.1226	709.47	705.36	701.24	697.1	692.93	1198.4	1177.6	1156.3	1135.4	1114.7
x1 = 0.2056	711.65	707.48	703.29	699.07	694.83	1187.6	1166.7	1145.4	1124.3	1103.4
x1 = 0.3046	714.48	710.23	705.96	701.64	697.3	1174.2	1153.1	1131.8	1110.5	1089.4
x1 = 0.4001	717.54	713.19	708.81	704.4	699.96	1161.4	1140.2	1118.7	1097.1	1075.9
x1 = 0.4535	719.37	714.96	710.53	706.06	701.56	1154.3	1132.9	1111.2	1089.6	1068.2
x1 = 0.4947	720.85	716.4	711.92	707.4	702.84	1148.7	1127.2	1105.4	1083.8	1062.3
x1 = 0.5442	722.73	718.21	713.67	709.09	704.48	1142	1120.6	1098.7	1077	1055.3
x1 = 0.5996	724.94	720.36	715.75	711.1	706.42	1134.7	1113	1091	1069.1	1047.5
x1 = 0.6916	728.91	724.2	719.47	714.7	709.89	1122.5	1100.6	1078.4	1056.2	1034.3
x1 = 0.8001	734.16	729.3	724.41	719.47	714.49	1108.1	1085.8	1063.2	1040.8	1018.6
x1 = 0.9007	739.68	734.66	729.6	724.5	719.35	1095.1	1072.6	1049.6	1026.9	1004.2
x1 = 0.9487	742.54	737.44	–	727.1	721.86	1089	1066.2	1043.1	1020.1	997.3
